US20140127231A1, “p38 MAPK Pathway Inhibitors as Female-Specific Therapeutics” (UNIVERSITY OF VERMONT, priority 2012, published 2014)
Entries after “also recorded” stand apart in the source; their conditions may differ.

Legend:
[1] = system: TH17 and TH1 cells in CNS-infiltrating cells; assay: CNS-infiltrating cells of treated EAE mice, intracellular cytokine staining and flow cytometry; format: in vivo, C57BL/6J (B6) mice; details: female B6 mice treated daily, D30 post-immunization
Excerpt: (§1) Female B6 mice were immunized for EAE as described for FIG. 1 and treated daily with carrier or SB. On D30 post-immunization, CNS (brain and spinal cord) cells were harvested and analyzed by intracellular staining and flow cytometry. Relative percentages (out of CD4+TCRβ+ population) of IL-17+, IFN-γ+, or IL-17+ IFN-γ+ cells (FIG. 2A), and percentages of CD4+TCRβ+ cells (out of CD45+ cells) (FIG. 2B). DLN cells were collected on D20 and restimulated with MOG35-55 for 3 days. Production of IFN-γ+(FIG. 2C) or IL-17 (FIG. 2D) was assessed by ELISA.
EAE was induced in female C57BL/6J mice as described previously (Noubade et al., 2007, J Clin Invest., 117(11):3507-3518). Mice were injected subcutaneously with an emulsion containing 200 μg of MOG35-55 peptide ([…] (SEQ ID NO: 1) and complete Freund adjuvant (CFA; Sigma-Aldrich) supplemented with 200 μg of Mycobacterium tuberculosis H37RA (Difco Laboratories) in the posterior right and left flank; 1 week later, all mice were similarly injected at 2 sites on the right and left flank anterior of the initial injection sites (2×MOG35-55+CFA). Mice received 5 mg/kg/d SB203580 dihydrochloride (Tocris) by IP injection in a total volume of 200 μL or an equal volume of carrier every day from the day of immunization.
Animals were perfused with saline and brains and spinal cords removed. A single-cell suspension was obtained and passed through a 70-μm strainer. Mononuclear cells were obtained by Percoll gradient (37%/70%) centrifugation and collected from the interphase. Cells were washed and stimulated for 4 hours with PMA/ionomycin in the presence of brefeldin A (Golgi Plug; BD Biosciences). […]
(§2) To examine the mechanism of EAE prevention by SB, the TH1 and TH17 effector subsets were analyzed in treated female mice. […] On D30 post-immunization, CNS (brain and spinal cord) cells were harvested and analyzed by intracellular staining and flow cytometry. […] Draining lymph node (DLN) cells were collected on D20 and restimulated with MOG35-55 for 3 days, and production of IFN-γ and IL-17 was assessed by ELISA.

[2] = system: Draining lymph node (DLN) cells; assay: Draining lymph node cells of treated EAE mice restimulated with MOG35-55, cytokine ELISA; format: in vivo, C57BL/6J (B6) mice; details: DLN cells collected D20, restimulated with MOG35-55 for 3 days
Excerpt: as §1
EAE was induced in female C57BL/6J mice as described previously (Noubade et al., 2007, J Clin Invest., 117(11):3507-3518). […]
as §2

[3] = system: Naïve CD4+ T cells cultured under TH17 polarizing conditions; assay: In vitro TH17 differentiation of CD4+ T cells, IL-17 production; format: cell-based, mice; details: 3 days
Description: Naïve CD4+ T cells were purified by negative selection and cultured under TH17 polarizing conditions for 3 days in the presence of SB20350 (5 μM if not otherwise indicated). IL-17 secretion was analyzed by ELISA (FIG. 3A). Relative IL-17 mRNA was assessed by qRT-PCR (FIG. 3B). IL-17 levels were assessed using intracellular staining and flow cytometry (FIG. 3C).
Total CD4 T cells were isolated from spleen and lymph nodes as previously described (Noubade et al., 2007, J Clin Invest., 117(11):3507-3518), by negative selection for CD8-, MHC class II-, NK1.1- and CD11b-positive cells using magnetic beads from QIAGEN. For FACS sorting, negatively selected CD4 T cells were stained with anti-TCRβ-allophycocyanin and anti-CD4-Texas Red (Invitrogen), and sorted using a FACSAria cell sorting system (BD Biosciences). Th17 CD4 T cells were generated by activating total CD4 T cells (1×10^6 cells/mL) in RPMI containing 10% FBS (Hyclone), with plate bound anti-CD3 (5 μg/mL) and soluble anti-CD28 (1 μg/mL) mAbs from BD Pharmingen in the presence of 1 ng/mL TGFβ (PeproTech Inc), 30 ng/mL IL-6 (R&D Systems), 10 μg/mL anti-IFNγ, and 10 μg/mL anti-IL-4 mAbs. […]
For intracellular cytokine staining, either FACS-sorted or total CD4 T cells polarized to Th17 cells in the absence or the presence of 5 μM SB203580 were stimulated with 5 ng/mL PMA, 250 ng/mL ionomycin, and 2 μM monensin (Sigma-Aldrich) for the last 4 hours of culture. […] Cells were collected using a LSR II cytometer (BD Biosciences) and analyzed using FlowJo software (TreeStar Inc).
Total RNA was extracted from CD4 T cells using RNeasy RNA isolation reagent (QIAGEN) as recommended by the manufacturer. The generated cDNA was used in quantitative real-time PCR using the assay-on-demand (AOD) TaqMan probe and primers for IL-17A and β2-microglobulin (Applied Biosystems). β2-microglobulin was used as a reference gene and relative mRNA levels were calculated using the comparative CT method.
IL-17 production was analyzed by various methods including ELISA, qRT-PCR, and intracellular staining and flow cytometry.

SMILES: C[S+]([O-])c1ccc(-c2nc(-c3ccncc3)c(-c3ccc(F)cc3)[nH]2)cc1 (centres unmarked) [SB203580]
- IFN-γ production by TH1 cells ([1]; CNS cells): did not suppress IFN-γ production
- IL-17 production by TH17 cells ([1]; CNS cells, listed as SB): inhibits IL-17 production by TH17 cells; also recorded: specifically inhibited IL-17 production; also recorded: only partially inhibits IL-17 production
- Percentage or number of infiltrating CD4+ T cells in the CNS [1]: did not decrease the percentage or number of infiltrating CD4+ T cells
- IFN-γ production (ELISA) [2]: did not decrease
- IL-17 production (ELISA) [2]: specifically inhibited IL-17 production
- Cellular IL-17 protein levels (intracellular staining, flow cytometry) ([3]; 5 μM): decreased
- IL-17 mRNA levels (qRT-PCR) ([3]; 5 μM): not significantly affected
- IL-17 production / secretion (ELISA) ([3]; inhibitor present, listed as SB): suppressed IL-17 production in a dose-dependent manner; also recorded: decreased; also recorded: reduced IL-17 production in vitro; also recorded: inhibits IL-17 production at a post-transcriptional level
